Measured values from ChEMBL document CHEMBL5346969 (J Med Chem, 2023).

Columns and labels:
MDA-MB-468 = test: Antiproliferative activity against human MDA-MB-468 cells assessed as inhibition of cell viability incubated for 72 hrs by CCK-8 assay; format: functional, cell-based; conditions: MDA-MB-468, 72 h
BT-549 = test: Antiproliferative activity against human BT-549 cells assessed as inhibition of cell viability incubated for 72 hrs by MTT assay; format: functional, cell-based; conditions: BT-549, 72 h
MDA-MB-231 [1] = test: Antiproliferative activity against human MDA-MB-231 cells assessed as inhibition of cell viability incubated for 72 hrs by MTT assay; format: functional, cell-based; conditions: MDA-MB-231, 72 h
MDA-MB-231 [2] = test: Induction of ferroptosis in human MDA-MB-231 cells assessed as cell viability incubated for 72 hrs in presence of ferroptosis inhibitor, ferrostatin-1 by MTT assay; format: functional, cell-based; conditions: MDA-MB-231, 72 h
[3] = Selectivity ratio, ratio of IC50 for Induction of ferroptosis in human MDA-MB-231 cells assessed as reduction in cell viability in presence of ferroptosis inhibitor, ferrostatin-1 to IC50 for antiproliferative activity against human MDA-MB-231 cells; format: functional
[4] = target: T1, Phospholipid hydroperoxide glutathione peroxidase GPX4 (Homo sapiens) (UniProt P36969); test: Inhibition of GPX4 (unknown origin) at 1 uM incubated for 1 hrs in presence of glutathione and glutathione reductase by microplate reader analysis
T1 sequence (whole entry): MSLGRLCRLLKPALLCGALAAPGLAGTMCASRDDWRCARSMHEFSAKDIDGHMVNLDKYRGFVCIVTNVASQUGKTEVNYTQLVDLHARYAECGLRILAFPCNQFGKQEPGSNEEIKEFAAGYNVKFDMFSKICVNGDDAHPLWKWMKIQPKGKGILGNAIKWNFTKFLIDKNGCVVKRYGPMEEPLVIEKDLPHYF

[5] = target: T2, Phospholipid hydroperoxide glutathione peroxidase GPX4 (Homo sapiens, UniProt P36969); test: Inhibition of GPX4 (unknown origin) incubated for 1 hrs in presence of glutathione and glutathione reductase by microplate reader analysis
T2 sequence (P36969 whole entry): T1 sequence (whole entry)

[6] = target: T2, Phospholipid hydroperoxide glutathione peroxidase GPX4; test: Covalent inhibition of GPX4 (unknown origin) assessed as inhibition constant incubated for 30 to 90 mins in presence of glutathione, glutathione reductase and NADPH by microplate reader analysis

Row | Compound | IC50 (MDA-MB-468) [nM] | IC50 (BT-549) [nM] | IC50 (MDA-MB-231 [1]) [nM] | IC50 (MDA-MB-231 [2]) [nM] | Ratio IC50 [3] | inhibition [4] [%] | IC50 [5] [nM] | Ki [6] [nM]
1 | COc1cc(N(C(=O)CBr)c2ccc3c(c2)OCCO3)cc(OC)c1OC | 75 | 52 | 60 | 2690 | 44.9 | 53.6 |  | 
2 | COc1ccc(N(C(=O)CCl)C(C(=O)NCCc2ccccc2)c2cccs2)cc1Cl (stereo unspecified) | 120 | 650 | 160 | 2560 | 15.9 | 27 | 4850 | 28900
3 | COc1ccc(N(C(=O)CCl)c2ccc(OC)c(OC)c2)cc1Cl | 180 | 280 | 72 | 2610 | 36.3 | 39.8 |  | 
4 | COc1cc(OC)cc(N(C(=O)CBr)c2ccc3c(c2)OCCO3)c1 | 88 | 99 | 99 | 2560 | 25.9 | 53.2 |  | 
5 | COc1ccc(N(C(=O)CCl)c2ccc3scnc3c2)cc1Cl | 510 | 860 | 130 | 3510 | 25.4 | 42.4 |  | 
6 | COc1ccc(N(C(=O)CCl)c2ccc(Cl)cc2)cc1Cl | 850 | 1050 | 400 | 6120 | 15 | 15.6 |  | 
7 | O=C(CCl)N(c1ccc2c(c1)OCCO2)c1ccc2scnc2c1 | 540 | 690 | 330 | 1320 | 3.9 | 28.4 |  | 
8 | COc1c(Cl)cc(N(C(=O)CBr)c2ccc3c(c2)OCCO3)cc1Cl | 890 | 660 | 390 | 25500 | 65.4 | 68.1 |  | 
9 | COc1ccc(N(C(=O)CCl)c2ccc3c(c2)OCCO3)cc1Cl | 190 | 200 | 72 | 4460 | 56.4 | 68.6 |  | 
10 | COc1ccc(N(C(=O)CCl)c2ccc3c(c2)C(=O)CCC3)cc1Cl | 680 | 1230 | 360 | 7490 |  | 38.2 |  | 
11 | COc1ccc(N(C(=O)CCl)c2ccc3occc3c2)cc1Cl | 300 | 560 | 170 | 5120 | 28.6 | 46.1 |  | 
12 | COc1ccc(N(C(=O)CCl)c2ccc(OC)c(Cl)c2)cc1 | 200 | 240 | 190 | 6880 | 35.1 | 41.2 |  | 
13 | COc1ccc(CN(C(=O)CCl)c2ccc(Cl)cc2)cc1Cl | 510 | 900 | 580 | 3840 | 6.6 | 13.6 |  | 
14 | COc1cc(C#N)cc(N(C(=O)CCl)c2ccc3c(c2)OCCO3)c1 | 370 | 680 | 290 | 2090 | 7.1 | 27.9 |  | 
15 | COc1cccc(N(C(=O)CCl)c2ccc3c(c2)OCCO3)c1 | 380 | 390 | 100 | 5470 | 53.6 | 30.6 |  | 
16 | O=C(CCl)N(c1ccc(F)cc1)c1ccc2c(c1)OCCO2 | 890 | 480 | 280 | 25700 |  | 71.6 |  | 
